Consider eleven compounds from patent US20250034136A1 (Nimbus Wadjet, Inc., priority 2023, published 2025).

SMILES strings stand for the structures. A value given as a limit tells only on which side of the number the result lay.

Chain of WRN (BV08), human Werner helicase (Uniprot Q14191, amino acids 517-1235 with L1074F point mutation) (Q14191 other isoform, or with tags, fused parts or gaps L1074F (already in the parent)): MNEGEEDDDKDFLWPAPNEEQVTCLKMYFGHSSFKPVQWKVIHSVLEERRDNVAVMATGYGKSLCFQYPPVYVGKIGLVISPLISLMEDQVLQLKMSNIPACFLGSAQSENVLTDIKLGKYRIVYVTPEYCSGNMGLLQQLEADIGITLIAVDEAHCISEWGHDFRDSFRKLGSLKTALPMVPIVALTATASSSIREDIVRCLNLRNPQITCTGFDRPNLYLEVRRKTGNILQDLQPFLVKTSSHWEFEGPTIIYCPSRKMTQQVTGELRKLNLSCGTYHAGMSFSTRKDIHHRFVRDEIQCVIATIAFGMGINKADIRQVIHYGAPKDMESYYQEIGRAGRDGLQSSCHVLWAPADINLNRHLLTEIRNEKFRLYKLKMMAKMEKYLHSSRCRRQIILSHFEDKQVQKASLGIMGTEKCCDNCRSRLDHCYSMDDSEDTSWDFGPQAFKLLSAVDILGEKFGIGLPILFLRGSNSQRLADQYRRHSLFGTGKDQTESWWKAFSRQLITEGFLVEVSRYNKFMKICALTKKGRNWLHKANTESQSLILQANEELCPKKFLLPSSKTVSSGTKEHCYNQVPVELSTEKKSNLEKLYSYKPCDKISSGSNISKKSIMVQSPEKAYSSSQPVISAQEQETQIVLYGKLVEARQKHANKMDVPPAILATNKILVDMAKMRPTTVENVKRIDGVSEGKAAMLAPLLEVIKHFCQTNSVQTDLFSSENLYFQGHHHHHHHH

The first assay concerns the target WRN (BV08), human Werner helicase (Uniprot Q14191, amino acids 517-1235 with L1074F point mutation) (Homo sapiens (Human), UniProt Q14191, L1074F). Description: WRN (BV08) ADP-Glo assay. It counts as biochemical. Particulars: class symbols A-E, read-out: ADP-Glo_hWRN_IC50. The protocol: Bovine skin gelatin (BSG), dimethyl sulfoxide (DMSO), Pluronic F-127 and tris(2-carboxyethyl)phosphine hydrochloride solution (TCEP) were purchased from Sigma-Aldrich (St. Louis, MO) at the highest level of purity possible. […] DNA strands were annealed by heating to 95° C. for 5 minutes followed by slow cooling to room temperature. Compounds in 100% DMSO (0.1 μl) were spotted into a 384-well white polystyrene Optiplate-384 (Perkin Elmer; Waltham, MA) assay plate using a LabCyte Echo 550 (Agilent; Santa Clara, CA). DMSO (0.1 μl) was added to columns 12, rows A-H and column 24, rows I-P for the maximum signal control. […] Compounds/DMSO were preincubated for 15 minutes at 25° C. with 5 μl 2×WRN (BV08), prepared as described below, in assay buffer containing 20 mM Bicine (pH=7.5), 1 mM MgCl2, 10 mM KCl, 0.1% Pluronic F-127, 0.005% BSG, 1 mM TCEP. The reaction was initiated by the addition of 5 μl 2× substrate mixture in assay buffer and incubated for 60 minutes at 25° C. The final concentrations of the assay components were 0.15 nM WRN, 5 μM ATP, and 0.1 nM DNA duplex. The final DMSO concentration was 1% and the reference compound concentration (NSC-617145) used for the minimal signal control was 20 μM. The reaction was stopped by the addition of the ADP-Glo Kit components (Promega; Madison, WI) as directed and the relative luminescence units (RLU) were read on an Envision 2104 (Perkin Elmer; Waltham, MA). % inhibition calculation:
[formula] • Where RLU=relative luminescence units, sample=signal in sample well, and MIN and MAX are the respective minimum and maximum signal controls.
[formula] • Where top and bottom are normally allowed to float but may be fixed at 100 or 0 respectively in a 3-parameter fit. Y is the % inhibition and X is the compound concentration.
Molecular Biology and virus production. […] The baculovirus from the expression plasmid WRN—BV08 was generated from transfection and amplification following the manufacturer's instructions.
Sf9 cells grown in SF900II media were infected with 1:200 WRN—BV08 P2 virus and incubated for protein expression for 72 h at 27° C. The WRN protein was purified using the following protocol. The cell pellets were thawed and resuspended in buffer A (50 mM Tris, pH 7.5, 500 mM NaCl, 1 mM TCEP, 10% Glycerol) supplemented with 0.5% CHAPS, 1 mM PMSF, 1 μg/ml Leupeptin, 1 μg/ml Pepstatin, and the Pierce Universal Nuclease and cocktail tablet. Cleared lysates were loaded onto a Ni Sepharose™ excel column and washed with buffer A and bound protein was eluted with buffer A supplemented with 300 mM imidazole. The eluted protein was dialyzed against buffer A and digested by His-tagged TEV (1:5 ratio) overnight at 4° C. ZnCl2 was added into the sample at final 15 μM before loading onto a second Ni Sepharose™ excel column. Untagged WRN protein was eluted from the column with buffer A supplemented with 20 mM imidazole, dialyzed overnight into buffer B (50 mM Tris, pH 7.5, 1 mM TCEP, 10% Glycerol) supplemented with 150 mM NaCl and loaded onto a Heparin column. Proteins were eluted with a step gradient of buffer B supplemented with 150 mM, 200 mM, 300 mM and 500 mM NaCl. WRN containing fractions were pooled and concentrated prior to loading on to size exclusion chromatography using a HiLoad 16/600 Superdex™ 200 pg column (GE Healthcare) in buffer C (20 mM HTEPES, pH 7.5, 250 mM NaCl, 0.25 mM TCEP, […]).
In general terms: ADP-Glo turns the ADP formed in a reaction into a luminescent signal.
Consider `CCc1c(N2CCN(C(=O)c3ncnc(C)c3O)C[C@@H]2C)c(=O)c2nc(N3CC[C@@H]4C[C@@H]43)cnc2n1CC(=O)Nc1ccc(C(F)(F)F)cc1Cl` (single isomer, unassigned) [I-193], for which the IC50 is not above 5 nM.

As for `CCc1c(N2CCN(C(=O)c3ncnc(C)c3O)[C@H](C)[C@@H]2C)c(=O)c2nc(N(C)C)cnc2n1CC(=O)Nc1ccc(C(F)(F)F)cc1Cl` (single isomer, unassigned) [I-198, N-(2-chloro-4-(trifluoromethyl)phenyl)-2-(2-(dimethylamino)-6-ethyl-7-(4-(5-hydroxy-6-methylpyrimidine-4-carbonyl)-2,3-dimethylpiperazin-1-yl)-8-oxopyrido[2,3-b]pyrazin-5(8H)-yl)acetamide], the IC50 was 5 to 50 nM.

For the compound `CCc1c(N2C[C@H]3CC[C@@H]2CN3C(=O)c2ncnc(C)c2O)c(=O)c2nc(N(C)C)cnc2n1CC(=O)Nc1ccc(C(F)(F)F)cc1Cl` (single isomer, unassigned) [I-248, N-(2-chloro-4-(trifluoromethyl)phenyl)-2-(2-(dimethylamino)-6-ethyl-7-(5-(5-hydroxy-6-methylpyrimidine-4-carbonyl)-2,5-diazabicyclo[2.2.2]octan-2-yl)-8-oxopyrido[2,3-b]pyrazin-5(8H)-yl)acetamide], the IC50 was in the range of 50 to 100 nM.

Regarding `CCc1c(N2CCN(C(=O)c3ncnc(C)c3O)C3COCC32)c(=O)c2nc(N(C)C)cnc2n1CC(=O)Nc1ccc(C(F)(F)F)cc1Cl` (single isomer, unassigned) [I-295, N-(2-chloro-4-(trifluoromethyl)phenyl)-2-(2-(dimethylamino)-6-ethyl-7-(4-(5-hydroxy-6-methylpyrimidine-4-carbonyl)hexahydrofuro[3,4-b]pyrazin-1(2H)-yl)-8-oxopyrido[2,3-b]pyrazin-5(8H)-yl)acetamide], the IC50 lay in the range of 5 to 50 nM.

`CCc1c(N2CCN(C(=O)c3ncnc(C)c3O)[C@@H](C)C2)c(=O)c2nc(N(C)C)cnc2n1CC(=O)Nc1ccc(C(F)(F)F)cc1Cl` [I-173, N-[2-chloro-4-(trifluoromethyl)phenyl]-2-[2-(dimethylamino)-6-ethyl-7-[(3S)-4-(5-hydroxy-6-methylpyrimidine-4-carbonyl)-3-methylpiperazin-1-yl]-8-oxo-5H,8H-pyrido[2,3-b]pyrazin-5-yl]acetamide]: the IC50 lay within 5 to 50 nM.

As for `C#C[C@H]1CN(C(=O)c2ncnc(C)c2O)CCN1c1c(CC)n(CC(=O)Nc2ccc(C(F)(F)F)cc2Cl)c2ncc(N(C)C)nc2c1=O` [I-260, N-[2-chloro-4-(trifluoromethyl)phenyl]-2-[2-(dimethylamino)-6-ethyl-7-[(2S)-2-ethynyl-4-(5-hydroxy-6-methylpyrimidine-4-carbonyl)piperazin-1-yl]-8-oxo-5H,8H-pyrido[2,3-b]pyrazin-5-yl]acetamide], the IC50 was 5 to 50 nM.

A further assay relates to p21 induction in HCT116 cells. Description: p21 induction in HCT116 cells. It counts as cell-based. To be noted: Homo sapiens, HCT-116, 24 h, HCT116 cells, 24 h compound incubation; read-out: P21_EC50. How it is done: The colon carcinoma cell line HCT116 was obtained from ATCC and cultured in growth medium consisting of Mccoy's 5A Medium (Gibco 16600108) supplemented with 10% FBS (Transgene FS201-02) and 100 units/mL penicillin-streptomycin (Gibco 15140122) and maintained at 37° C. under 5% CO2. On the day of seeding, 2,000 cells in 30 μL of culture media were plated per well to Poly-D-Lysine 384 Well Black Clear Plates (Biocoat 356663) and incubated overnight at 37° C. under 5% CO2. The following day, compounds were serially diluted in DMSO for a total of 11 test concentrations. […] Next, 150 nL of diluted compound was added in duplicate to the assay plate, using an Echo 655 (Labcyte). The plate was centrifuged at 500 RPM for 1 min and then incubated at 37° C. under 5% CO2 for 24 h. After 24 h, medium was removed, and cells were fixed by adding 40 μL of 4% paraformaldehyde solution to each well and incubated for 20 min at room temperature. The plate was then washed 4 times with 100 μL per well of wash buffer (PBS with 0.1% Tween-20) using a microplate washer. Next, 30 μL of ice-cold methanol was added to each well and the plate was incubated at −20° C. for 10 min. The plate was washed 4 times with 100 μL per well of wash buffer by a microplate washer, then 30 μL per well of blocking buffer (Intercept PBS blocking buffer (LI-COR 927-70001) with 0.05% Tween-20) was added and the plate was incubated at room temperature with shaking for 2 h. Next, to each test well, 20 μL of primary antibody solution (p21 Waf1/CIP (12D1) RabbitmAb (Cell Signaling Technologies 2947) diluted 1:1000 and GAPDH (D4C6R) Mouse mAb (Cell Signaling Technologies 97166) diluted 1:2000 in blocking buffer) was added and the plate was placed at 4° C., overnight. The following day, the plate was washed 5 times with 100 μL per well of wash buffer using a microplate washer for 5 min. 20 μL per well of secondary antibody (IRDye 680CW Goat anti-Mouse IgG (H+L) (LI-COR 926-68070) diluted 1: 2000 in Blocking Buffer and IRDye 800CW Goat anti-Rabbit IgG (H+L) (LI-COR 926-32211) diluted 1: 2000 in Blocking Buffer) was then added and the plate was stored for 2 h in the dark at room temperature with shaking. The plate was then washed 4 times with 100 μL per well of wash buffer again using a microplate washer. Finally, the p21 signal and the GAPDH signal were quantified using a LI-COR Odyssey CLx Imager machine reading at 800 nm and 700 nm, respectively. Each plate contained DMSO control (low control) and an internal reference WRN inhibitor (high control) respectively. […] EC50 values for each compound were generated after non-linear regression curve fitting using commercially available software.
For the compound `CCc1c(N2CCN(C(=O)c3ncnc(C)c3O)C3CCC32)c(=O)c2nc(N(C)C)cnc2n1CC(=O)Nc1ccc(C(F)(F)F)cc1Cl` (racemic) [I-34, rac-N-(2-chloro-4-(trifluoromethyl)phenyl)-2-(2-(dimethylamino)-6-ethyl-7-(5-(5-hydroxy-6-methylpyrimidine-4-carbonyl)-2,5-diazabicyclo[4.2.0]octan-2-yl)-8-oxopyrido[2,3-b]pyrazin-5(8H)-yl)acetamide], the EC50 was less than 500 nM.

As to `CCc1c(N2CCN(C(=O)c3ncnc(C)c3O)[C@H]3CC[C@H]32)c(=O)c2nc(N(C)C)cnc2n1CC(=O)Nc1ccc(C(F)(F)F)cc1Cl` (racemic) [I-106, rac-N-(2-chloro-4-(trifluoromethyl)phenyl)-2-(2-(dimethylamino)-6-ethyl-7-(5-(5-hydroxy-6-methylpyrimidine-4-carbonyl)-2,5-diazabicyclo[4.2.0]octan-2-yl)-8-oxopyrido[2,3-b]pyrazin-5(8H)-yl)acetamide], the EC50 was 500 to 2000 nM.

With `CCc1c(N2CCN(C(=O)c3ncnc(C)c3O)[C@@H]3CC[C@H]32)c(=O)c2nc(N(C)C)cnc2n1CC(=O)Nc1ccc(C(F)(F)F)cc1Cl` (single isomer, unassigned) [I-39, N-(2-chloro-4-(trifluoromethyl)phenyl)-2-(2-(dimethylamino)-6-ethyl-7-(−5-(5-hydroxy-6-methylpyrimidine-4-carbonyl)-2,5-diazabicyclo[4.2.0]octan-2-yl)-8-oxopyrido[2,3-b]pyrazin-5(8H)-yl)acetamide], the EC50 lay in the range of 2000 to 5000 nM.

Regarding `CCc1c(N2CCN(C(=O)c3ncnc(C)c3O)[C@H]3CC[C@@H]32)c(=O)c2nc(N(C)C)cnc2n1CC(=O)Nc1ccc(C(F)(F)F)cc1Cl` (single isomer, unassigned) [I-40, N-(2-chloro-4-(trifluoromethyl)phenyl)-2-(2-(dimethylamino)-6-ethyl-7-(−5-(5-hydroxy-6-methylpyrimidine-4-carbonyl)-2,5-diazabicyclo[4.2.0]octan-2-yl)-8-oxopyrido[2,3-b]pyrazin-5(8H)-yl)acetamide], the EC50 is less than 500 nM.

Staying with this assay, now noted: Homo sapiens, HCT-116, 24 h, read-out: P21_EC50.
As for `[2H]C([2H])([2H])N(c1cnc2c(n1)c(=O)c(N1CCN(C(=O)c3ncnc(C)c3O)[C@H]3CC[C@@H]31)c(CC)n2CC(=O)Nc1ccc(C(F)(F)F)cc1Cl)C([2H])([2H])[2H]` [I-101, 2-(2-(bis(methyl-d3)amino)-6-ethyl-7-((1S,6S)-5-(5-hydroxy-6-methylpyrimidine-4-carbonyl)-2,5-diazabicyclo[4.2.0]octan-2-yl)-8-oxopyrido[2,3-b]pyrazin-5(8H)-yl)-N-(2-chloro-4-(trifluoromethyl)phenyl)acetamide], the EC50 is less than 500 nM.
